Results: patent US11969412B2, “Methods and compounds for the treatment or prevention of hypercytokinemia and severe influenza” (Poolbeg Pharma (UK) Limited, priority 2017, dated 2024)
Read-outs that look alike come from different tables or passages of the source.

Columns and labels:
[1] = system: immune cells (PBMCs plus granulocytes stimulated with A549 viral soup); experiment: cells; type: cell-based, human
p38MAPK [2] = experiment: Western blotting of HSP27 phosphorylation in HUVEC cells after HBEC viral soup; type: cell-based, human; conditions: pre-incubation, western blot
Experimental: For western blotting confluent cells were washed in PBS and lysed in RIPA with protease inhibitor (Sigma-P8340), phosphatase inhibitor cocktails 2 and 3 (Sigma P5726 and P0044) and phosphatase inhibitors Na3VO4 and NaF on ice. […] The membranes were treated with Amersham ECL Prime Western Blotting Detection Reagent (GE/Amersham #RPN2232) and imaged using ChemiDoc™ Touch Imaging System (BIORAD). Analysis was performed using the Image Lab software.
In vitro data were generated from HUVEC cells to test the effect of HBEC viral soup application on p38 activation as measured by western blotting of the phosphorylation status of the p38MAPK downstream signalling target, HSP27.

p38MAPK [3] = experiment: Western blotting of HSP27 phosphorylation in immune cells (PBMCs) after A549 viral soup; type: cell-based, human; conditions: pre-incubation, western blot
immune cells (PBMCs) = type: cell-based, human
p38MAPK [4] = experiment: Western blotting of p38MAPK and HSP27 phosphorylation in A549 cells after A549 viral soup; type: cell-based, human; conditions: western blot
Experimental: In vitro data were generated from A549 cells to test the effect of A549 viral soup application on p38 activation as measured by western blotting of the phosphorylation status of p38MAPK itself and downstream signalling target, HSP27. For western blotting confluent cells were washed in PBS and lysed in RIPA with protease inhibitor (Sigma-P8340), phosphatase inhibitor cocktails 2 and 3 (Sigma P5726 and P0044) and phosphatase inhibitors Na3VO4 and NaF on ice. Protein concentrations were determined using the Pierce BCA Protein Assay Kit and equal concentrations of each sample created in 4× Laemmli sample buffer (BIO-RAD 161-0747) with 2-mercaptoethanol. Samples were run on a 12% gel and then transferred on to nitrocellulose. Membranes were blocked using 5% milk powder, then hybridised with p38 MAPK rabbit antibody (Cell Signalling Technologies, cat. no. 9212S) and phosphorylated p38 MAPK rabbit antibody (Cell Signalling Technologies, cat. no. 9211S), or HSP27 antibody (Cell signalling Technologies, cat. no. 2402) and phospho-HSP27 antibody (Cell signalling Technologies, cat. no. 9709). Secondary antibodies were anti-rabbit HRP (Cell signalling Technologies catalogue no. CS7074P2) and anti-mouse HRP (Cell signalling, catalogue no. 7076S), respectively. Membranes were stripped for re-probing using Restore™ PLUS Western Blot Stripping Buffer (Life technologies #46430). […]

influenza virus = conditions: cited from earlier work; for survival rate at Day 20 of infection: controls 14%
[5] = system: endothelial cells (HUVECs); experiment: cells; type: cell-based, human
HBEC cells = experiment: Inflammatory mediator production in HBEC cells after HBEC viral soup (MSD analysis); type: cell-based, human; conditions: HBECs treated prior to HBEC viral soup
[6] = Homo sapiens, A549, read-out: IC50 IL1B
[7] = Homo sapiens, A549, read-out: IC50 IL6
[8] = Homo sapiens, A549, read-out: IC50 IL8
[9] = Homo sapiens, A549, read-out: IC50 TNFa
[10] = Homo sapiens, HUVEC, read-out: IC50 IL10

CC[C@H]1OC(=O)[C@H](C)[C@@H](O[C@H]2C[C@@](C)(OC)[C@@H](O)[C@H](C)O2)[C@H](C)[C@@H](O[C@@H]2O[C@H](C)C[C@H](N(C)C)[C@H]2O)[C@](C)(O)C[C@@H](C)CN(C)[C@H](C)[C@@H](O)[C@]1(C)O [Azithromycin]
iMax IL1B [1]: 50% | iMax IL6 [1]: 45% | iMax IL8 [1]: 46% | iMax TNFa [1]: 63% | IC50 [1, 6]: 0.5 nM | IC50 [1, 7]: 119 nM | IC50 [1, 8]: 0.8 nM | IC50 [1, 9]: 86.9 nM

Cc1cc(F)ccc1-c1nc(NC(CO)CO)nc2c1ccc(=O)n2-c1c(F)cccc1F [Dilmapimod]
induction of HSP27 phosphorylation (p38MAPK [2]): dose dependently inhibit | induction of HSP27 phosphorylation (p38MAPK [3]): dose dependently inhibit | A549 viral soup induced release of TNFα, IL-1-β, IL-6 and CXCL8 (immune cells (PBMCs)): significantly attenuate | induction of both p38MAPK and HSP27 phosphorylation (p38MAPK [4]): dose dependently inhibit

CC[C@H]1OC(=O)[C@H](C)[C@@H](O[C@H]2C[C@@](C)(OC)[C@@H](O)[C@H](C)O2)[C@H](C)[C@@H](O[C@@H]2O[C@H](C)C[C@H](N(C)C)[C@H]2O)[C@](C)(O)C[C@@H](C)C(=O)[C@H](C)[C@@H](O)[C@]1(C)O [EM]
survival rate at Day 20 of infection (influenza virus; 1.0 mg/kg/d): 42% | survival rate of mice infected with influenza virus (influenza virus; 3.3 mg/kg/d intraperitoneally, Days 1-6 after infection): significantly improved | survival rate at Day 20 of infection (influenza virus; 3.3 mg/kg/d): 57%

Cn1cc2c(-c3ccc(F)cc3)c(-c3ccncc3)c(-c3ccc(F)cc3)nc2n1 [Formula III]
production of TNFα and IL-8 (immune cells (PBMCs)): attenuate | production of IL-8 and IP-10 [5]: attenuate | release of IL-6 and IP-10 (HBEC cells): attenuated

OCCCn1cc2c(-c3ccc(F)cc3)c(-c3ccncc3)c(-c3ccc(F)cc3)nc2n1 [Formula II]
attenuating the inflammatory response in immune cells, compared with Formula III (immune cells (PBMCs)): consistently better effects than the compound of Formula III | production of MIP-1a and IL-8 (TNFa plus IL-6 as stimulus) and TNFa and IL-8 (A549 virus soup as stimulus) (immune cells (PBMCs)): attenuate | attenuating the inflammatory response in endothelial cells, compared with Formula III [5]: consistently better effects than the compound of Formula III | production of IL-8 and IP-10 [5]: attenuate

C[C@H]1C[C@@H]2[C@H]([C@@H](O)C[C@@]3(C)[C@H]2CC[C@]3(O)C(=O)CO)[C@@]2(C)C=CC(=O)C=C12 [Methyl Prednisolone]
iMax IL1B [1]: 77% | iMax IL6 [1]: 57% | iMax IL8 [1]: 90% | iMax TNFa [1]: 79% | IC50 [1, 6]: 8.4 nM | IC50 [1, 7]: 36.6 nM | IC50 [1, 8]: 8.4 nM | IC50 [1, 9]: 20.2 nM

CNC(=O)c1ccc(C)c(-n2c(C)cc(OCc3ccc(F)cc3F)c(Br)c2=O)c1 [PH797804]
A549 viral soup induced release of TNFα, IL-1-β, IL-6 and CXCL8 (immune cells (PBMCs)): significantly attenuate | induction of both p38MAPK and HSP27 phosphorylation (p38MAPK [4]): dose dependently inhibit | iMax IL8 [5]: 86% | iMax IL10 [5]: 88% | iMax MCP1 [5]: 36% | IC50 ([5]; Homo sapiens, HUVEC, read-out: IC50 IL8): 28.9 nM | IC50 [5, 10]: 7.5 nM | IC50 ([5]; Homo sapiens, HUVEC, read-out: IC50 MCP1): 13.1 nM | iMax IL1B [1]: 79% | iMax IL8 [1]: 87% | iMax TNFa [1]: 91% | IC50 [1, 6]: 9.7 nM | IC50 [1, 8]: 2.3 nM | IC50 [1, 9]: 3.9 nM

CCc1ccc(CCOc2ccc(CC3SC(=O)NC3=O)cc2)nc1 (centres unmarked) [Pioglitazone]
iMax IL6 [1]: 41% | iMax IL8 [1]: 37% | IC50 [1, 7]: 0.02 nM | IC50 [1, 8]: 0.1 nM

CC[C@H](C)C(=O)O[C@H]1C[C@H](O)C=C2C=C[C@H](C)[C@H](CC[C@@H](O)C[C@@H](O)CC(=O)O)[C@H]21 [Pravastatin]
iMax IL10 [5]: 35% | IC50 [5, 10]: 78 nM

Nc1ccc2ncnc(NCCc3ccc(Oc4ccccc4)cc3)c2c1 [QNZ (EVP4593)]
iMax IL8 [5]: 60% | iMax IL10 [5]: 72% | iMax MCP1 [5]: 44% | IC50 ([5]; read-out: IC50 IL8): 6.5 nM | IC50 ([5]; read-out: IC50 IL10): 3.3 nM | IC50 ([5]; read-out: IC50 MCP1): 3.84 nM | iMax IL8 [1]: 47% | iMax TNFa [1]: 37% | IC50 ([1]; read-out: IC50 IL8): 0.2 nM | IC50 ([1]; read-out: IC50 TNFa): 43.6 nM

COc1cc(F)c(F)c(Nc2ccc(I)cc2F)c1NS(=O)(=O)C1(C[C@H](O)CO)CC1 [Refametinib]
dose-dependent inhibition of IP10 production [5]: Neither Refametinib nor Selumetinib showed dose-dependent inhibition | levels of IP10 at higher drug concentrations [5]: appeared to increase

O=C(Nc1c(Cl)cncc1Cl)c1ccc(OC(F)F)c(OCC2CC2)c1 [Roflumilast]
iMax IL8 [1]: 31% | iMax TNFa [1]: 74% | IC50 [1, 8]: 0.09 nM | IC50 [1, 9]: 10.8 nM

Selumetinib
dose-dependent inhibition of IP10 production [5]: Neither Refametinib nor Selumetinib showed dose-dependent inhibition | levels of IP10 at higher drug concentrations [5]: appeared to increase
